Where “and” joins values, the source holds several entries; their conditions need not be identical. Equal entries are not always repeated.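 Dose response: 5 concentrations. Exposure: 48 h. Format: 96-well plates. Endpoint: linear interpolation; highest concentration if not reached. GI50 = concentration required for 50% inhibition of growth. TGI marks complete inhibition of growth.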
Key:
Assay in all cases: DTP human tumour cell line panel, 48 h
SF-295 CNS = test system: SF-295 CNS
UACC-62 melanoma = test system: UACC-62 melanoma
MDA-MB-435 = test system: MDA-MB-435
RPMI-8226 leukemia = test system: RPMI-8226 leukemia
MDA-MB-231 breast = test system: MDA-MB-231 breast
HOP-92 NSCLC = test system: HOP-92 NSCLC
HOP-62 NSCLC = test system: HOP-62 NSCLC
NCI-H460 lung = test system: NCI-H460 lung
TK-10 renal = test system: TK-10 renal
OVCAR-5 ovarian = test system: OVCAR-5 ovarian

SMILES | GI50 (SF-295 CNS) | TGI (SF-295 CNS) | GI50 (UACC-62 melanoma) | TGI (UACC-62 melanoma) | GI50 (MDA-MB-435) | TGI (MDA-MB-435) | GI50 (RPMI-8226 leukemia) | TGI (RPMI-8226 leukemia) | GI50 (MDA-MB-231 breast) | TGI (MDA-MB-231 breast) | GI50 (HOP-92 NSCLC) | TGI (HOP-92 NSCLC) | GI50 (HOP-62 NSCLC) | TGI (HOP-62 NSCLC) | GI50 (NCI-H460 lung) | TGI (NCI-H460 lung) | GI50 (TK-10 renal) | TGI (TK-10 renal) | GI50 (OVCAR-5 ovarian) | TGI (OVCAR-5 ovarian)
N#Cc1ccc(/C=C/C(=O)c2ccccc2)cc1 | 16.4 µM and 11.8 µM | 32.1 µM and 25.4 µM | 13.5 µM and 14 µM | 26.6 µM and 27.5 µM | 6.28 µM and 8.07 µM | 18 µM and 21.8 µM | 2.32 µM and 1.93 µM | 6.4 µM and 4.83 µM | 15 µM and 15.1 µM | 29.3 µM and 30.1 µM | 16.9 µM and 17.6 µM | 65.5 µM and 39 µM | 22 µM and 18.4 µM | > 54.9 µM and 33.8 µM | 14.5 µM and 8.35 µM | 28.9 µM and 22.4 µM | 14.2 µM and 12.1 µM | 28.2 µM and 26 µM | 16.6 µM and 14.6 µM | 31.1 µM and 30 µM
CNCCN(C)Cc1cn[nH]c1-c1ccc(OC2CC(OCCC3CCOCC3)C2)cc1 (stereo not given) | 49.9 µM | > 100 µM | 39.1 µM | > 100 µM | > 100 µM | > 100 µM | 44.4 µM | > 100 µM | 40.7 µM | > 100 µM | 1.43 µM | > 50.8 µM | 99.1 µM | > 100 µM | 97.9 µM | > 100 µM | > 100 µM | > 100 µM | > 100 µM | > 100 µM
CCc1ccc([O-])c(C=NCCCN(C)CCCN=Cc2cc(C)ccc2[O-])c1.[Co+3].[N-]=[N+]=[N-] | 28.1 µg/mL and 16.9 µg/mL | 50 µg/mL and 48.1 µg/mL | 50 µg/mL and 78.2 µg/mL | 50 µg/mL and > 150 µg/mL | 50 µg/mL | 50 µg/mL | 50 µg/mL and 73.5 µg/mL | 50 µg/mL and > 150 µg/mL | 15.2 µg/mL | 38.5 µg/mL | 15.9 µg/mL and 22 µg/mL | 50 µg/mL and 54.7 µg/mL | 10.5 µg/mL and 12 µg/mL | 50 µg/mL and 34.5 µg/mL | 50 µg/mL and > 150 µg/mL | 50 µg/mL and > 150 µg/mL | 29 µg/mL | 50 µg/mL | 50 µg/mL and 137 µg/mL | 50 µg/mL and > 150 µg/mL
Fc1ccc(C2C3CCOc4c(ccc5ccccc45)C3=NN2c2ccccc2)cc1 (stereo not given) | 20.7 µM | > 100 µM | > 66.2 µM | > 100 µM | > 100 µM | > 100 µM | 63.5 µM | > 100 µM | 43.8 µM | > 100 µM | > 84.6 µM | > 100 µM | > 100 µM | > 100 µM | 37.1 µM | > 100 µM | > 65 µM | > 100 µM | > 100 µM | > 100 µM
COC(=O)C1(C)CCCC2(C)c3cc(OC)ccc3C(=O)C(Br)C12 (stereo not given) | – | > 10 µM | – | > 10 µM | – | > 10 µM | – | 6.53 µM | – | > 10 µM | – | > 10 µM | – | > 10 µM | – | > 10 µM | – | > 10 µM | – | > 10 µM
COc1ccc(-c2nc3sccn3c2-c2ccnc(NCCCNS(=O)(=O)c3ccc(F)cc3)n2)cc1 | 2.8 µM | 8.55 µM | 0.752 µM | 2.73 µM | 2 µM | 6.51 µM | 1.6 µM | 5.37 µM | 4.18 µM | > 100 µM | 1.75 µM | > 100 µM | 4.15 µM | 23.7 µM | 2.78 µM | 37.6 µM | 3.92 µM | > 100 µM | 4.59 µM | > 100 µM
OCc1ccc(N(Cc2ccc(F)cc2)CC2CCC2)cc1Cl | 4.06 µM | 17.5 µM | 1.57 µM | 8.34 µM | 15.4 µM | 30 µM | 9.28 µM | 31.6 µM | 13.5 µM | 26.8 µM | 0.839 µM | 12.8 µM | 10 µM | 22.7 µM | 3.17 µM | 15 µM | 0.705 µM | 3.65 µM | 1.13 µM | 4.25 µM

Reference: PubChem BioAssay (NCI)
